In US12668567B2 (Zywie, LLC, priority 2023, dated 2026):
“Also recorded” adds a separate entry of the source.

Assays:
[1] = tested on: iPSC-derived human neurons bearing the Swedish amyloid precursor protein mutation; assay: Secretion of Abeta40 and Abeta42 into media (ELISA); type: cell-based; details: 5 days; for secretion of Abeta40 into the media / secretion of Abeta42 into the media: 10 micromolar; for secretion of Abeta40 into the media: FIG. 7A; for secretion of Abeta42 into the media: FIG. 7B
Excerpt: Media was collected and analysed by ELISA assay.
Media was taken and analyzed by ELISA (Invitrogen) for Abeta 40 (FIG. 7A) and 42 (FIG. 7B) following manufacturer's instructions.

TFEB = TFEB transfer to the nucleus (immunostaining, nuclear puncta); type: cell-based; details: human iPSC-derived neurons, 14 days; FIG. 6
Experimental: To obtain the data, human iPSC-derived neurons were treated with difluor-substituted-ambroxol for 14 days. Cells were fixed and endogenous TFEB was immunostained and nuclei were identified by DAPI staining. Cells were imaged on a Leica SP8 Confocal Microscope. TFEB signal appeared as puncta throughout the cytoplasm and nucleus (FIG. 6B). TFEB puncta within the nucleus were quantitated using IMARIS software (Bitplane).
Human iPSC-derived neurons were treated with difluoro-substituted-ambroxol for 14 days. Cells were fixed and endogenous TFEB was immunostained. Nuclei were identified by DAPI staining. Cells were imaged as 3D stacks on a Leica SP8 Confocal Microscope. TFEB signal appeared as puncta throughout the cytoplasm and nucleus (FIG. 6A). TFEB puncta within the nucleus were quantitated using IMARIS 7.7 software (Bitplane) (FIG. 6B).

N2A neuroblastoma cells = assay: Lysosomal, autophagosomal and TFEB gene expression by qPCR in N2A cells; type: cell-based; details: 10 micromolar, FIG. 4
Experimental: To obtain the data, N2A neuroblastoma cells were treated for 3 days with solvent alone (DMSO), ZW-010 (difluoro) or ZW-011 (dimethoxy) at 10 micromolar. Cells were extracted and mRNAs were quantitated by qPCR.
In FIG. 4, N2a Neuroblastoma cells were obtained from the American Tissue Type Collection (ATCC). Cells were plated in a 6-well plate at a density of 100,000 cells/well. Cells were given 24 hours in MEM supplemented with 10% Fetal Bovine Serum (FBS) and then differentiated by serum starvation in MEM for 24 hours. […] Cells were left in treated media for 24 hours then RNA was TRIzol-chloroform extracted. cDNA was created using an iScript cDNA synthesis kit (Bio-Rad), and RT-PCR was run using a SsoAdvanced Universal SYBR Green Supermix kit (Bio-Rad).

[2] = mouse, in vivo, po, 10 mg/kg
Experimental: Both compounds were dosed at 10 mg/kg (free base equivalent) as 1 mg/mL clear solutions in 5:95 v/v dimethylsulfoxide (DMSO)/saline. Volumes administered were calculated for each animal based on their most recent weight. Animals were fasted overnight prior to drug administration and food and water were returned 4 h after dose administration. Mice (N=3 per group) were sacrificed at 0.15, 0.25, 1, 2, 4, 8, and 24 h post-dose. Blood (K2EDTA collection tubes) and brain were collected from each animal at each time point. Plasma (isolated from blood samples by centrifugation) and brain homogenates (obtained by homogenization with 50% methanol in water in a 1:2 w/v ratio) were used to prepare samples for quantitative analysis (internal standard: verapamil) by HPLC/MS-MS (C18 column, gradient elution; standard curves from 1 to 3,000 ng/mL; electrospray, positive ionization mode, multiple reaction monitoring—MRM—mode).

[3] = tested on: iPSC-derived human neurons; assay: Lysosomal and autophagosomal gene expression by qPCR in iPSC-derived human neurons; type: cell-based; details: 3 days, 10 micromolar, FIG. 5
Experimental: To obtain the data, iPSC-derived human Neurons were treated for 3 days with solvent alone (DMSO), ZW-010 (difluoro) or ZW-011 (dimethoxy) at 10 micromolar. Cells were extracted and mRNAs were quantitated by qPCR.
In FIG. 5, Human iPSC-derived neurons (as in FIG. 3) were plated on two 6-well plates at a density of 150,000 cells/well. […] Cells were treated for 3 days and cells were TRIzol-chloroform extracted. cDNA was created using an iScript cDNA synthesis kit (Bio-Rad), and RT-PCR was run using a SsoAdvanced Universal SYBR Green Supermix kit (Bio-Rad).

[4] = Metabolic stability in human liver microsomes; type: in vitro ADME; details: for Increase of elimination half-life vs. ambroxol: human liver microsomes; for In vitro elimination half-life t1/2 / Intrinsic clearance CLint-microsomes: human liver microsomes 1 mg/mL protein, 1 μM compound, 37° C., NADPH-regenerating system
Experimental: The compounds were added to preparations of human liver microsomes (200 μL per incubation at a 1 mg/mL protein concentration) such that the final compound concentration was 1 μM. The samples were incubated at 37° C. in the presence of a reduced nicotinamide adenine dinucleotide phosphate (NADPH)-regenerating system (NADP, 1 mM, pH 7.4; glucose-6-phosphate, 5 mM, pH 7.4; glucose-6-phosphate dehydrogenase, 1 unit/mL). A positive control (midazolam, 1 μM, 0.1 mg/mL protein) was incubated concurrently to ensure the microsome preparation was performing as expected. Samples were obtained at t=0, 30, 60, and 120 min and quenched by addition of acetonitrile.
Quenched samples were analyzed by liquid chromatography coupled to tandem mass spectrometry detection (LC/MS-MS). The concentration of the test compounds at each time point were converted to percent remaining relative to the concentration of the compound at time t=0 (which serves as the 100% value). All data points were included in data processing. The rate constant of elimination (kel, min^−1) of each test compound was determined from the time course of disappearance of the parent compound based on fitting the experimental data to a single exponential decay formula (At=Aoe^−kelt, where At is the % remaining at time t, Ao is 100%, […] is the elimination rate constant, and t is time). The in vitro half-life (t1/2) was determined from kel based on the formula: t1/2=ln(2)/kel. The rate constant of elimination was also used to calculate the in vitro intrinsic clearance CLint-microsomes (μL/min/mg protein).

[5] = tested on: human induced pluripotent stem cell (iPSC)-derived neurons; assay: Lysosomal size (Lysotracker, confocal microscopy) in iPSC-derived neurons; type: cell-based; details: 14 days, IMARIS software, FIG. 3
Experimental: To obtain the data, human induced pluripotent stem cell (iPSC)-derived neurons were grown in culture for 14 days. Lysosomes were stained with “Lysotracker” and cells were fixed and imaged using confocal micrsosopy. Lysosomal size was measured using IMARIS software (Bitplane).
In FIG. 3 human neuronal inducible Pluripotent Stem Cells (iPSCs) were obtained from the New York Stem Cell Foundation. Cultured cells were differentiated and maintained in proprietary media from Stem Cell Technology. […] Cells were treated for 14 days. Lysosomes were stained with “Lysotracker Green” (Invitrogen) following manufacturer's directions. Cells were fixed and 3D image stacks were acquired using a Leica SP8 laser scanning confocal microscope. Lysosomal size was quantitated using IMARIS 7.7 software (Bitplane).

mice = assay: Novel place recognition (cognitive acuity test at 7 months); type: in vivo, mouse; details: 150 mg/kg/day and 50 mg/kg/day vs. control, tested at 7 months; FIG. 9
Experimental: A Discrimination Index (DI)=(tnovel-tfamiliar)/(tnovel+tfamiliar) was used to assess the time spent exploring near the object in a novel place (“tnovel”) vs. the total exploration time overall. Discrimination Index scores greater than zero are considered to indicate good place recognition memory.
Three groups of mice, with at least 13 mice in each group, are given a cognitive acuity test at 7 months. The three groups of mice are: “High Dose” Group (150 mg/kg/day of a compound of the present invention), “Low Dose” (50 mg/kg/day of a compound of the present invention) Group, and a Control Group (not administered a compound of the present invention).

mouse B6D2F1 model = assay: Lifespan study with chow supplement; type: in vivo; details: 50 mg/kg daily as chow supplement
Experimental: Weaned male BDF1 mice raised from pups, housed 1-4 animals per cage and fed Teklad 7013 NIH-31 rodent chow and water ad libitum, at 2 months of age, are divided into two roughly equal groups of 22-25 animals. One group continues to be fed the Teklad chow as before (control); the other group is switched to Teklad chow formulated with any one of compounds 1-6 at 300 mg per kg of chow. This formulation was designed, based on the average ad libitum chow consumption of an adult male BDF1 mouse, to deliver 50 mg/kg/day (based on body mass) to each mouse in the treated group. Mice are maintained on this diet until they die naturally or until they reach 16 months of age, at which time the experiment ends. During the course of the experiment, all mice are periodically removed from their cages and handled in the course of subjecting them to various sensorimotor, cognitive, and/or behavioral tests.

Structure (SMILES) | secretion of Abeta40 into the media [1] | secretion of Abeta42 into the media [1] | TFEB transfer to the nucleus (TFEB) | lysosomal, autophagosomal and TFEB gene expression (LAMP1, Cathepsin B, GBA1, LC3, TFEB mRNA) (N2A neuroblastoma cells) | AUClast Brain/Plasma [2] | AUClast, brain [2] [ng·h/g] | AUClast, plasma [2] [ng·h/mL] | molar exposure AUClast [2] [µM·h] | lysosomal and autophagosomal gene expression (LAMP1, Cathepsin D, Cathepsin B, GBA1, LC3, TFEB mRNA) [3] | Increase of elimination half-life vs. ambroxol [4] | In vitro elimination half-life t1/2 [4] [h] | Intrinsic clearance CLint-microsomes [4] [μL/min/mg protein] | lysosomal size [5] | secretion of beta amyloid species (Abeta 40 and 42) ([1]; FIG. 7A-B) | cognitive acuity (novel place recognition) (mice) | lifespan (mouse B6D2F1 model; starting at 2 months of age, FIG. 8) | healthspan (mouse B6D2F1 model; surviving animals when sacrificed)
Nc1c(F)cc(F)cc1CN[C@H]1CC[C@H](O)CC1 [ZW-010, trans-{4-[(2-amino-3.5-difluorophenyl)methyl]amino}cyclohexanol] | decreased secretion | decreased secretion | induces TFEB transfer to the nucleus | increased transcription of lysosome-associated LAMP1, Cathepsin B, GBA1, and autophagy-associated LC3 and TFEB to a greater extent than ambroxol; also recorded: drive lysosomal and autophagosomal and TFEB gene expression | 3.6 | 10774 | 2991 | 42.0 | increased transcription of lysosome-associated LAMP1, Cathepsin D, Cathepsin B, GBA1, and autophagy-associated LC3 and TFEB to a greater extent than ambroxol; also recorded: drive lysosomal and autophagosomal gene expression to a greater degree in iPSC-derived human neurons compared with ambroxol | increased by more than two-fold | >2 | <5.775 | increase lysosomal size | – | – | – | –
COc1cc(CN[C@H]2CC[C@H](O)CC2)c(N)c(OC)c1 [ZW-011, trans-4-{[(2-amino-3.5-dimethoxyphenyl)methyl]amino}cyclohexanol] | decreased secretion | decreased secretion | – | increased transcription of lysosome-associated LAMP1, Cathepsin B, GBA1, and autophagy-associated LC3 and TFEB to a greater extent than ambroxol; also recorded: drive lysosomal and autophagosomal and TFEB gene expression | – | – | – | – | increased transcription of lysosome-associated LAMP1, Cathepsin D, Cathepsin B, GBA1, and autophagy-associated LC3 and TFEB to a greater extent than ambroxol; also recorded: drive lysosomal and autophagosomal gene expression to a greater degree in iPSC-derived human neurons compared with ambroxol | increased by more than two-fold | >2 | <5.775 | increase lysosomal size | – | – | – | –
Nc1c(Br)cc(Br)cc1CN[C@H]1CC[C@H](O)CC1 [ambroxol, trans-4-((2-amino-3,5-dibromobenzyl)amino) cyclohexanol] | – | – | – | – | – | – | – | – | – | – | – | – | – | effective in reducing secretion of beta amyloid species | dose-related improvement in cognitive acuity | able to increase lifespan | healthspan was extended in parallel with lifespan
